Source: patent publication US8173131B2, “Compositions and methods for modulating RSV infection and immunity” (PerkinElmer Health Sciences, Inc., priority 2000, dated 2012)

Columns and labels:
RSV = RSV plaque reduction assay on Vero cells (Example 1); type: cell-based, RSV/A2
Method: Dilutions of Fkn (R&D systems), SDF-1 α (R&D systems), G glycoprotein, heparin (Sigma), G glycoprotein peptides and anti-CX3CR1 antibody were made in serum-free Dulbecco's Modified Eagle's Media (DMEM; GIBCO) containing 1% BSA (Sigma) and preincubated with the Vero cells for 1 h at 37° C. 50 μg of anti-CX3CR1 antibody or heat-inactivated (56° C., 30 min) normal rabbit sera (control) were used in all experiments. […] Dilutions of RSV were made in serum-free DMEM (GIBCO) and added to pretreated Vero cells for 2 h at 37° C. Following virus infection, DMEM (GIBCO) containing 10% FBS (Hyclone, Logan, Utah) was added to the wells. Plaques were enumerated using immunostaining for F and G glycoproteins using biotinylated monoclonal antibodies 131-2A (anti-F glycoprotein) and 130-2G (anti-G glycoprotein) as described^45.
RSV plaque reduction following treatment with G glycoprotein, Fkn, G glycoprotein peptides, anti-CX3CR1 antibody, SDF-1-α and/or heparin as described in Methods. Percent inhibition was determined from the mean plaque forming units (pfu) of treated Vero cells over saline-treated Vero cells using a dilution of RSV that would produce 40-80 pfu. p-values were determined using unpaired two-tailed analysis where p<0.05 is significant. The concentration of G glycoprotein was estimated using a molecular weight of 90 kD.

CD3+ BAL cells = assay: Intracellular cytokine expression by CD3+ T cells following in vivo peptide treatment; set-up: species or system BALB/c mice
Method: (§1) On day −1, prior to RSV infection, mice were i.p. treated (0.1 ml/mouse) with 100 μM of G glycoprotein peptides RT33 (CWAIC) (SEQ ID NO: 12), RT34 (lacks the CX3C motif) or peptides with changes in the CX3C motif (Δ+1, Δ−1, EYp1). Control mice were treated with PBS containing a similar dilution of DMSO used to solubilize the peptides.
Intracellular cytokine staining was modified for microculture staining as described (55, 57). Briefly, BAL cells were incubated in PBS containing Golgi Stop (Pharmingen) for 3 h at 37° C. to allow for accumulation of intracellular cytokines. The cells were washed in PBS containing 1% bovine serum albumin, blocked with 10% normal mouse sera diluted in PBS containing 1% bovine serum albumin, and stained (4° C., 30 min) with an appropriate dilution of anti-CD3 antibody, fixed and permeabilized in Cytofix/Cytoperm (Pharmingen). The cells were washed in Cytofix/Cytoperm buffer and stained (4° C., 30 min) with appropriate dilutions of anti-IL-2 (JES6-5H4), anti-IL-4 (BVD4-1D11), anti-IL-5 (TRFK5), IL-10 (JES3-16E3), anti-IFNγ (XMG1.2), or anti-TNFα (MP6-XT22) antibodies (Pharmingen) diluted in Cytofix/Cytoperm. Extra- and intracellular staining was analyzed by flow cytometry using a FACScan and Cell Quest software (Becton Dickinson, San Diego, Calif.). Total cytokine expression by CD3+ T cells was determined from the percent cytokine expression of CD3+ T cells and total number of cells recovered. The total number of CD3+ BAL cells expressing a particular cytokine was determined by multiplying the total number of BAL cells by the percent CD3+ cells expressing that particular cytokine.

[1] = system: bronchoalveolar leukocytes (BAL); assay: BAL cell infiltration and cell types in RSV-infected mice following in vivo peptide treatment; set-up: species or system BALB/c mice; conditions: in words
Excerpt: Total pulmonary leukocyte trafficking following treatment of mice with peptides containing a CX3C motif (RT33 and EYp1) (A) or peptides without a CX3C motif (RT34, Δ+1, Δ−1)(B).
(§2) Flow cytometry results following treatment (d−1) of mice with PBS, RT33, RT34, Δ+1, Δ−1 and EYp1 peptides (100 μm). BAL cells were stained with antibodies against B220^+ (A, D, G), CD3^+ (B, E, H) and CD11b^+ (C, F, I) cells. Data is expressed as the total BAL cells/lung±SEM at days 3, 5, 7 and 14 post-infection. A representative experiment from 3 independent experiments is shown.
as §2, with “NK (DX5^+)” for “B220^+”, “(A, C, E) and PMN (RB6-8C5^+) cells (B,” for “(A,”, “F).” for “G), CD3^+ (B, E, H) and CD11b^+ (C, F, I) cells.”
as §1
Mice were anesthetized with Avertin and exsanguinated by severing the right caudal artery. Bronchoalveolar leukocyte (BAL) cells were harvested by lung lavage with PBS containing 1% bovine serum albumin (BSA, Sigma). The procedure used for extracellular staining of BAL cells was modified for microculture staining as described (55,57). Briefly, BAL cells were washed in Dulbecco's PBS (GIBCO) containing 1% bovine serum albumin (Sigma), blocked with 10% normal mouse sera diluted in PBS containing 1% bovine serum albumin, and then stained (4° C., 30 min) with an appropriate dilution of FITC-conjugated or PE-conjugated anti-CD3ε (145-2C11), anti-CD45R/B220 (RA3-6B2), anti-CD8 (Ly-2), anti-neutrophil (PMN) (RB6-8C5), anti-CD11b (M1/70) and isotype antibody controls (all from Pharmingen, San Diego, Calif.).

[2] = system: G glycoprotein binding to 293-CX3CR1 cells; set-up: species or system human; conditions: chemokine 10 μM
Method: All binding studies were done on ice and either G glycoprotein or human Fkn (R&D Diagnostics, Minneapolis, Minn.) were diluted between 1 nM-100 nM in PBS (GIBCO) containing 1% bovine serum albumin (Sigma) and incubated with the 293-CX3CR1 cells or 293 control cells for 30 min at 4° C. […] Without washing, 100 pM of either Fkn or G glycoprotein was added and incubated for 30 min at 4° C. The cells were washed, blocked with FcγRIII blocking antibody (HB197) for 30 min on ice, washed and stained as appropriate with either an anti-G glycoprotein monoclonal antibody cocktail (132-5B, 132-5G, 130-2G, 232-IF) or a biotinylated anti-G glycoprotein monoclonal antibody cocktail (130-2G, 131-2G) or anti-Fkn monoclonal antibody (51637.11; R&D Diagnostics). Concentrations of 1 μg of anti-G glycoprotein monoclonal antibody (131-2G)^34, rabbit anti-CX3CR1 sera^33, and anti-CX3CR1 monoclonal antibody containing 10 μg/ml heparin were used in all experiments. […] Staining was detected with absorbed FITC-goat anti-mouse (H & L chain) monoclonal antibody (PharMingen, San Diego, Calif.) or streptavidin-PE (PharMingen) using flow cytometry (FACScan, Becton-Dickinson, Mountain View, Calif.). A 76 amino acid ^125I-Fkn polypeptide comprising the […] (NEN, Boston, Mass.) was used in radioligand studies^33. As a control, the void volume following purified G glycoprotein passaged over an anti-G glycoprotein antibody (130-2G) affinity column was examined by flow cytometry for binding to either 293 or 293-CX3CR1 cells.
For peptide inhibition studies, a series of G glycoprotein peptides were identified in the amino acid sequence of the A2 strain of RSV (GENBANK, attachment protein locus 1912305, Table 4). The peptides were synthesized using a simultaneous, multiple solid-phase peptide synthesis method on a peptide synthesizer (Perkin-Elmer Applied Biosystems, Berkeley, Calif.), and tested for homogeneity by reverse-phase liquid chromatography and capillary electrophoresis (www.biotech.cdc.gov/protein/methods). Inhibition assays were performed as described for the binding studies above.
To determine if G glycoprotein bound 293-CX3CR1 cells via CX3CR1, the ability of four reagents (anti-CX3CR1 rabbit antiserum, anti-CX3CR1 monoclonal antibody (2A9-1), Fkn and a 76 amino acid 125-I-Fkn polypeptide containing the CX3C domain) that bind to CX3CR1 to block G glycoprotein binding to 293-CX3CR1 cells was examined. In addition, to determine if binding of G glycoprotein to 293-CX3CR1 cells was dependent upon the CX3C motif, G glycoprotein peptides with a single residue insertion (Δ+1) or deletion (Δ−1) in the CX3C motif and also peptides that lacked or included the CX3C motif (Table 4) were generated. This panel of peptides was analyzed for their ability to block G glycoprotein or Fkn binding to 293-CX3CR1 cells.
Inhibition of Fkn and G glycoprotein binding to 293-CX3CR1 cells by treatment with monoclonal antibodies to G glycoprotein or CX3CR1, or treatment with G glycoprotein, Fkn, or G glycoprotein peptides in the presence or absence of heparin as described in Methods. […] The concentration of G glycoprotein was estimated using a molecular weight of 90 kD.

[3] = target: T1, Fkn binding to 293-CX3CR1 cells (Homo sapiens, UniProt P49238); conditions: chemokine 10 μM
T1 construct: host or cells: HEK 293 cells stably transfected with CX3CR1
T1 sequence (P49238 whole entry): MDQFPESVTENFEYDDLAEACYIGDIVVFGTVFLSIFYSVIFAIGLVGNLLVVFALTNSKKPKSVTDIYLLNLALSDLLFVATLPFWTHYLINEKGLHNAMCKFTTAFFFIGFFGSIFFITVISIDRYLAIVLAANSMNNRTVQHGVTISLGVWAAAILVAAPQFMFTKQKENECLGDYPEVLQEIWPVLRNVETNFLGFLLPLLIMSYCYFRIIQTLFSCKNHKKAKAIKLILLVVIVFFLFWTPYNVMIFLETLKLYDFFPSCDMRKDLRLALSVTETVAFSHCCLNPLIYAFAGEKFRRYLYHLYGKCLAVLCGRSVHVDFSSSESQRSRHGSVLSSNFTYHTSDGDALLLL

## SDF-1α [reference compound]
RSV; 1 nM
  plaque inhibition (%): 5%
RSV; 10 nM
  plaque inhibition (%): 7%
RSV; 100 nM
  plaque inhibition (%): 12%
RSV; in words
  effect on RSV plaque formation / plaque number: no effect on RSV plaque formation was detected

## TCAAACKRIPNKK [EYp1, 13-mer G glycoprotein peptide variant of RT33 with CAAAC motif]
CD3+ BAL cells; day 3 pi
  Total IC cytokine Expressing CD3^+ BAL cells (×10^3) ± SEM: IFNγ: 32 ± 7.3 ×10^3
  Total IC cytokine Expressing CD3^+ BAL cells (×10^3) ± SEM: IL-4: 32 ± 7.2 ×10^3
  Total IC cytokine Expressing CD3^+ BAL cells (×10^3) ± SEM: IL-5: 34 ± 7.7 ×10^3
  Total IC cytokine Expressing CD3^+ BAL cells (×10^3) ± SEM: IL-6: 35 ± 8.0 ×10^3
  Total IC cytokine Expressing CD3^+ BAL cells (×10^3) ± SEM: TNFα: 36 ± 8.1 ×10^3
CD3+ BAL cells; day 3 pi, peptide 24 hours prior to RSV infection
  Total IC cytokine Expressing CD3^+ BAL cells (×10^3) ± SEM: IL-2: 26 ± 6.0 ×10^3
CD3+ BAL cells; day 5 pi
  Total IC cytokine Expressing CD3^+ BAL cells (×10^3) ± SEM: IFNγ: 26 ± 5.4 ×10^3
  Total IC cytokine Expressing CD3^+ BAL cells (×10^3) ± SEM: IL-2: 17 ± 3.6 ×10^3
  Total IC cytokine Expressing CD3^+ BAL cells (×10^3) ± SEM: IL-4: 28 ± 5.6 ×10^3
  Total IC cytokine Expressing CD3^+ BAL cells (×10^3) ± SEM: IL-5: 32 ± 6.5 ×10^3
  Total IC cytokine Expressing CD3^+ BAL cells (×10^3) ± SEM: IL-6: 19 ± 7.4 ×10^3
  Total IC cytokine Expressing CD3^+ BAL cells (×10^3) ± SEM: TNFα: 41 ± 8.4 ×10^3
CD3+ BAL cells; day 7 pi
  Total IC cytokine Expressing CD3^+ BAL cells (×10^3) ± SEM: IFNγ: 18 ± 2.6 ×10^3
  Total IC cytokine Expressing CD3^+ BAL cells (×10^3) ± SEM: IL-2: 7.8 ± 1.1 ×10^3
  Total IC cytokine Expressing CD3^+ BAL cells (×10^3) ± SEM: IL-4: 12 ± 1.6 ×10^3
  Total IC cytokine Expressing CD3^+ BAL cells (×10^3) ± SEM: IL-5: 20 ± 2.8 ×10^3
  Total IC cytokine Expressing CD3^+ BAL cells (×10^3) ± SEM: IL-6: 17 ± 2.4 ×10^3
  Total IC cytokine Expressing CD3^+ BAL cells (×10^3) ± SEM: TNFα: 6.8 ± 2.8 ×10^3
CD3+ BAL cells; day 14 pi
  Total IC cytokine Expressing CD3^+ BAL cells (×10^3) ± SEM: IFNγ: 5.3 ± 0.3 ×10^3
  Total IC cytokine Expressing CD3^+ BAL cells (×10^3) ± SEM: IL-2: 5.1 ± 0.3 ×10^3
  Total IC cytokine Expressing CD3^+ BAL cells (×10^3) ± SEM: IL-4: 5.4 ± 0.3 ×10^3
  Total IC cytokine Expressing CD3^+ BAL cells (×10^3) ± SEM: IL-5: 7.7 ± 0.5 ×10^3
  Total IC cytokine Expressing CD3^+ BAL cells (×10^3) ± SEM: IL-6: 5.0 ± 0.3 ×10^3
  Total IC cytokine Expressing CD3^+ BAL cells (×10^3) ± SEM: TNFα: 6.8 ± 0.5 ×10^3
[1]; day 3 pi
  total BAL numbers compared to mice treated with RT34, Δ−1 or PBS: reduced BAL numbers
[1]; days 3, 5, 7 and 14 pi
  numbers of BAL cell types (B220+, CD3+, CD11b+, NK, PMN): increased numbers of CD3+ cells on days 5 and 7 pi
[1]; from day 3 to day 14 pi
  course of BAL numbers: increased

B1: IP-10: chemokine (protein, UniProt P17515 22-98, looked up)
C-X-C motif chemokine 10: IPLARTVRCNCIHIDDGPVRMRAIGKLEIIPASLSCPRVEIIATMKKNDEQRCLNPESKTIKNLMKAFSQKRSKRAP
[2]
  Range of Inhibition (%) of G glycoprotein binding: 0-4%
[3]
  Range of Inhibition (%) of Fkn binding: 0-6%

B2: KC: growth regulated oncogene-α, KC, chemokine (protein, UniProt P12850 25-96, looked up)
Growth-regulated alpha protein: APIANELRCQCLQTMAGIHLKNIQSLKVLPSGPHCTQTEVIATLKNGREACLDPEAPLVQKIVQKMLKGVPK
[2]
  Range of Inhibition (%) of G glycoprotein binding: 0-6%
[3]
  Range of Inhibition (%) of Fkn binding: 4-6%

B3: MIP-2: chemokine (protein)
chain: AVVASELRCQCLKTLPRVDFKNIQSLSVTPPGPHCAQTEVIATLKGGQKVCLDPEAPLVQKIIQKILNKGKAN
[2]
  Range of Inhibition (%) of G glycoprotein binding: 2-8%
[3]
  Range of Inhibition (%) of Fkn binding: 0-4%

B4: C10: macrophage inflammatory protein-related protein-1 (C10), chemokine (protein)
chain: GLIQEMEKEDRRYNPPIIHQGFQDTSSDCCFSYATQIPCKRFIYYFPTSGGCIKPGIIFISRRGTQVCADPSDRRVQRCLSTLKQGPRSGNKVIA
[2]
  Range of Inhibition (%) of G glycoprotein binding: 5-8%
[3]
  Range of Inhibition (%) of Fkn binding: 4-8%
